Earlier results in patent US4788322A, “Process for preparing ACHPA” (Merck & Co., Inc., priority 1987, dated 1988).
Square brackets hold non-standard residues; d marks the D form. Peptide text beside a SMILES is read from it. * marks the point of attachment. Sta = CC(C)C[C@H](N)[C@@H](O)CC(=O)O; Isovaleryl = CC(C)CC(=O)*

Test system: hog renin
Details: after injection of hog renin into nephrectomized rats; Gross et al., Science 1972

In the case of `CC(C)CC(=O)N[C@H](C(=O)N[C@H](C(=O)N[C@@H](CC(C)C)[C@@H](O)CC(=O)N[C@@H](C)C(=O)N[C@@H](CC(C)C)[C@@H](O)CC(=O)O)C(C)C)C(C)C` [pepstatin] (Isovaleryl-VV[Sta]A[Sta]-OH), the “blood pressure in vivo” value is given as “reduces blood pressure”.
